Measured values published in patent US20260176265A1 (Cancer Research Technology Limited, priority 2022, published 2026).

Columns and labels:
[1] = molecular target: T1, Phospho-EGFR (Tyr1068) in H1975 cells (Homo sapiens, UniProt P00533, L858R/T790M); assay: HTRF pEGFR/total EGFR assay in H1975 cells; type: cell-based; settings: compound 3 hours, ratio pEGFR/total EGFR
T1 construct: host or cells: H1975
Summary of the method: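 H1975 cells (EGFR L858R/T790M) adhered 24 h, then compound-treated for 3 h in duplicate, 0.1% DMSO final. Lysates read by HTRF at 665/620 nm for phospho-Tyr1068 and total EGFR. Value is pEGFR/total EGFR ratio as % of 0 uM control.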

[2] = molecular target: T2, Phospho-EGFR (Tyr1068) in H1975 C797S cells (Homo sapiens, UniProt P00533, C797S/L858R/T790M); assay: HTRF pEGFR/total EGFR assay in H1975 C797S cells; type: cell-based; settings: H1975 C797S cells (CRISPR), compound 3 hours, ratio pEGFR/total EGFR
T2 construct: endogenous in cells; host or cells: H1975 C797S (CRISPR-edited in house from ATCC CRL-5908)
Summary of the method: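 H1975 cells carrying CRISPR-engineered EGFR C797S (with L858R/T790M) were exposed to compounds for 3 h at 0.1% DMSO, in duplicate. Lysates were read with HTRF kits for pEGFR Tyr1068 and total EGFR at 665/620 nm. Values are the pEGFR/total EGFR ratio as percent of the 0 uM control.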

[3] = molecular target: CtermHisTag-mEGFR Wild type (Homo sapiens, UniProt P00533); assay: TR-FRET probe displacement assay, EGFR wild type; type: binding; settings: EGFR wild type 1.25 nM, probe 100 nM, 30 mins room temperature
Summary of the method: (§1)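 Ten-point compound series, 100000 to 3 nM final, tested against His-tagged EGFR (wild type or C797S/L858R/T790M) for probe displacement. TR-FRET read at Ex337 nm, Em490/520 nm; run in technical replicate, biological duplicate.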

[4] = molecular target: CtermHisTag-mEGFR Triple Mutant - C797S, L858R, T790M (Homo sapiens, UniProt P00533, C797S/L858R/T790M); assay: TR-FRET probe displacement assay, EGFR triple mutant; type: binding; settings: T790M 1.25 nM, probe 100 nM, 30 mins room temperature
Summary of the method: as §1

[5] = molecular target: T3, Phospho-EGFR (Tyr1068) in A431 cells (Homo sapiens, UniProt P00533); assay: HTRF pEGFR/total EGFR assay in A431 cells (EGF stimulated); type: cell-based; settings: compound 2.5 hours then 100 ng/ml EGF 30 mins, ratio pEGFR/total EGFR
T3 construct: endogenous in cells; host or cells: A431
Summary of the method: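 A431 cells pretreated with compounds 2.5 h (0.1% DMSO), then stimulated with 100 ng/ml EGF for 30 min. Lysates assayed by HTRF for phospho-EGFR (Tyr1068) and total EGFR, read at 665/620 nm. Values are pEGFR/total EGFR ratio as percentage of 0uM control.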

CtermHisTag-mEGFR Triple Mutant - C797S, L858R, T790M, sequence (P00533 25-1210 T790M/C797S/L858R): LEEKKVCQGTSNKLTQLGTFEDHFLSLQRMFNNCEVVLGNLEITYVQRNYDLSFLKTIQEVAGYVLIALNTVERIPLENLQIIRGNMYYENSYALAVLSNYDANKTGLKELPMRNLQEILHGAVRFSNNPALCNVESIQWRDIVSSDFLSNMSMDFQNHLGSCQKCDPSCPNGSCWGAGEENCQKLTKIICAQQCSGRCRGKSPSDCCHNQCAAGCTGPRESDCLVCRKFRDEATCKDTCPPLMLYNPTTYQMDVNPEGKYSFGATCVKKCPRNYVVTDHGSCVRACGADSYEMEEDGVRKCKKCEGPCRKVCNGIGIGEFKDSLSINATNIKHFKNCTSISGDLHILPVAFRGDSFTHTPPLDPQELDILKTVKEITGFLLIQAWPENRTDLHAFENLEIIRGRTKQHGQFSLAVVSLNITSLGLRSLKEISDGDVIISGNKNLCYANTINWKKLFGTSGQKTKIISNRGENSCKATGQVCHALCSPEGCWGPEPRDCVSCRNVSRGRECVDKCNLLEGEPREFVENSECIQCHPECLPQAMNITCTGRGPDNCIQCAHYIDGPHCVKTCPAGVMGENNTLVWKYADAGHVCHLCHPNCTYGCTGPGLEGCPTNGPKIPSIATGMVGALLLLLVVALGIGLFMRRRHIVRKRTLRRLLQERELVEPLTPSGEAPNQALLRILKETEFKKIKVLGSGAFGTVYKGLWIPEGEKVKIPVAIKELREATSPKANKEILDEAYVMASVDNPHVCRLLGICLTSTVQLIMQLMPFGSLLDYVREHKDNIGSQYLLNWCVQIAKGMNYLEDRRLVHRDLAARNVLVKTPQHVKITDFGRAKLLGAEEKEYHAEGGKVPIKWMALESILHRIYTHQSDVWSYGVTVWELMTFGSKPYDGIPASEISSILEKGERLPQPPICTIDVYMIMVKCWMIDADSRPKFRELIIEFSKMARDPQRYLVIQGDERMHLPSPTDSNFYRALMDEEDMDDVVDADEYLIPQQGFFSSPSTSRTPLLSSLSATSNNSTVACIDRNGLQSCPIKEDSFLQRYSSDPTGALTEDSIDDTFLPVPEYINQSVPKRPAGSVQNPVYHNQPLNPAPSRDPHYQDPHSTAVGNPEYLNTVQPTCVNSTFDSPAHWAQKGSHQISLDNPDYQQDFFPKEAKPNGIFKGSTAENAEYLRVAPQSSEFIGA
T2 sequence (P00533 25-1210 T790M/C797S/L858R): as above
T3 sequence (P00533 25-1210): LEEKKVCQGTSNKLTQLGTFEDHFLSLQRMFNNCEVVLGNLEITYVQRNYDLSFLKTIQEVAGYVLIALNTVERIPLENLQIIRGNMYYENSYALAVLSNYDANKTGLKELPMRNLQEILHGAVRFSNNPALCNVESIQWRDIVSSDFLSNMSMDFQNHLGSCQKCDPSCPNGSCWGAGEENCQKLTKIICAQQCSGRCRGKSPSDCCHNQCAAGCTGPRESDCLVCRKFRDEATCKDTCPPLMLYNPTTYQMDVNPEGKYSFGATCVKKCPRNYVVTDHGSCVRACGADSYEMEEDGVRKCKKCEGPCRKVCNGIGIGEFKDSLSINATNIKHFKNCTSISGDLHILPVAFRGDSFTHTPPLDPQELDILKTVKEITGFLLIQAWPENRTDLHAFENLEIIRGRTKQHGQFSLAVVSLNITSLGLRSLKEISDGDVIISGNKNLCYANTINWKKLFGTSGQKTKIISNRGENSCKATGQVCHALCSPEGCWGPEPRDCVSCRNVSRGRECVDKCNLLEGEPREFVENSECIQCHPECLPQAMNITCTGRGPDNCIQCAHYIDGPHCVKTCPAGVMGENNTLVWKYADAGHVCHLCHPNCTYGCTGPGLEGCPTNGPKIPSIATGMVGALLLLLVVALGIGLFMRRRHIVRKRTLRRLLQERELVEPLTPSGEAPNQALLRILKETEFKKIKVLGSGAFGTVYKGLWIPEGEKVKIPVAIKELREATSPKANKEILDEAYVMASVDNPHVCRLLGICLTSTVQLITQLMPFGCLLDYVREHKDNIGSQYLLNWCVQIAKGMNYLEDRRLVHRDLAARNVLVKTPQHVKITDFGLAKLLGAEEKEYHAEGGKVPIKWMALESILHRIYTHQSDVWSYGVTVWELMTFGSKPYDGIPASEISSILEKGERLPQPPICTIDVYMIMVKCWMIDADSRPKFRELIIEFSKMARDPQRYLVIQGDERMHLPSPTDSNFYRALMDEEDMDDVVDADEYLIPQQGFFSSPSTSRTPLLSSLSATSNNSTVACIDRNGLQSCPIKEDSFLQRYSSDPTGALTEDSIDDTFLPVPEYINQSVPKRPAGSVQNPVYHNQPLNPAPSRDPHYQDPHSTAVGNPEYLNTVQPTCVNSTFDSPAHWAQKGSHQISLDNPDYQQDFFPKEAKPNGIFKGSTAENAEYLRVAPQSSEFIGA
CtermHisTag-mEGFR Wild type, sequence (P00533 25-1210): as above

| IC50 [1] | IC50 [2] | IC50 [3] | IC50 [4] | IC50 [5] | SMILES |
| --- | --- | --- | --- | --- | --- |
| > 3000 nM | > 3000 nM | 1000 to 10000 nM | < 20 nM | > 3000 nM | C#Cc1cc(NC(=O)NC2CN(C(C)=O)C2)nc2nc(Nc3ccc(N4CCN(C)CC4)cc3)ncc12 [Example 54] |
| < 500 nM | < 500 nM | < 1000 nM | < 20 nM | > 3000 nM | C#Cc1cc(NC(=O)NCC2COC2)nc2nc(Nc3ccc(N4CCN(C)CC4)cc3)ncc12 [Example 55, 1-(5-ethynyl-2-{[4-(4-methylpiperazin-1-yl)phenyl]amino}pyrido[2,3-d]pyrimidin-7-yl)-3-(oxetan-3-ylmethyl)urea] |
| 1000 to 3000 nM | > 3000 nM | > 10000 nM | 100 to 1000 nM | > 3000 nM | C#Cc1cc(NC(=O)N2CCCC2)nc2nc(Nc3ccc(N4CCN(C)CC4)cc3)ncc12 [Example 56, N-(5-ethynyl-2-{[4-(4-methylpiperazin-1-yl)phenyl]amino}pyrido[2,3-d]pyrimidin-7-yl)pyrrolidine-1-carboxamide] |
| > 3000 nM | > 3000 nM | < 1000 nM | < 20 nM | > 3000 nM | C#Cc1cc(NC(=O)NC2CN(S(C)(=O)=O)C2)nc2nc(Nc3ccc(N4CCN(C)CC4)cc3)ncc12 [Example 57, 1-(5-ethynyl-2-{[4-(4-methylpiperazin-1-yl)phenyl]amino}pyrido[2,3-d]pyrimidin-7-yl)-3-(1-methanesulfonylazetidin-3-yl)urea] |
| > 3000 nM | > 3000 nM | > 10000 nM | 100 to 1000 nM | > 3000 nM | C#Cc1cc(NC(=O)N2Cc3ccccc3C2)nc2nc(Nc3ccc(N4CCN(C)CC4)cc3)ncc12 [Example 58, N-(5-ethynyl-2-{[4-(4-methylpiperazin-1-yl)phenyl]amino}pyrido[2,3-d]pyrimidin-7-yl)-1,3-dihydroisoindole-2-carboxamide] |
| 1000 to 3000 nM | 1000 to 3000 nM | < 1000 nM | < 20 nM | > 3000 nM | C#Cc1cc(NC(=O)Nc2ncc[nH]2)nc2nc(Nc3ccc(N4CCN(C)CC4)cc3)ncc12 [Example 59, 1-(5-ethynyl-2-{[4-(4-methylpiperazin-1-yl)phenyl]amino}pyrido[2,3-d]pyrimidin-7-yl)-3-(1H-imidazol-2-yl)urea] |
| < 500 nM | < 500 nM | < 1000 nM | < 20 nM | < 500 nM | C#Cc1cc(NC(=O)NC2(C(F)(F)F)CCCC2)nc2nc(Nc3ccc(N4CCN(C)CC4)cc3)ncc12 [Example 60, 1-(5-ethynyl-2-((4-(4-methylpiperazin-1-yl)phenyl)amino)pyrido[2,3-d]pyrimidin-7-yl)-3-(1-(trifluoromethyl)cyclopentyl)urea] |
| < 500 nM | < 500 nM | < 1000 nM | < 20 nM | > 3000 nM | C#Cc1cc(NC(=O)NC2(C)COC2)nc2nc(Nc3ccc(N4CCN(C)CC4)cc3)ncc12 [Example 61, 1-(5-ethynyl-2-((4-(4-methylpiperazin-1-yl)phenyl)amino)pyrido[2,3-d]pyrimidin-7-yl)-3-(3-methyloxetan-3-yl)urea] |
| < 500 nM | < 500 nM | < 1000 nM | < 20 nM | 500 to 1000 nM | C#Cc1cc(NC(=O)NC2(C)CCOC2)nc2nc(Nc3ccc(N4CCN(C)CC4)cc3)ncc12 (centres unmarked) [Example 62] |
| < 500 nM | 1000 to 3000 nM | < 1000 nM | 20 to 100 nM | < 500 nM | C#Cc1cc(NC(=O)NC2CCCC2)nc2nc(Nc3ccc(N4CCN(C)CC4)c(NCC4CCC4)c3)ncc12 [Example 63] |
| < 500 nM | 1000 to 3000 nM | 1000 to 10000 nM | < 20 nM | < 500 nM | C#Cc1cc(N2C(=O)NCC2C(C)C)nc2nc(Nc3ccc(N4CCN(C)CC4)cc3)ncc12 (centres unmarked) [Example 64, 1-(5-ethynyl-2-{[4-(4-methylpiperazin-1-yl)phenyl]amino}pyrido[2,3-d]pyrimidin-7-yl)-5-isopropylmidazolidin-2-one] |
| 1000 to 3000 nM | > 3000 nM | > 10000 nM | 100 to 1000 nM | > 3000 nM | C#Cc1cc(NC(=O)OC2CCCC2)nc2nc(Nc3ccc(N4CCN(C)CC4)cc3)ncc12 [Example 65, cyclopentyl (5-ethynyl-2-((4-(4-methylpiperazin-1-yl)phenyl)amino)pyrido[2,3-d]pyrimidin-7-yl)carbamate] |
| > 3000 nM | > 3000 nM | > 10000 nM | 100 to 1000 nM | > 3000 nM | C#Cc1cc(NC(=O)OC2CCCCC2)nc2nc(Nc3ccc(N4CCN(C)CC4)cc3)ncc12 [Example 66, cyclohexyl (5-ethynyl-2-((4-(4-methylpiperazin-1-yl)phenyl)amino)pyrido[2,3-d]pyrimidin-7-yl)carbamate] |
| > 3000 nM | > 3000 nM | > 10000 nM | 1000 to 50000 nM | > 3000 nM | C#Cc1cc(NC(=O)OCc2ccccc2)nc2nc(Nc3ccc(N4CCN(C)CC4)cc3)ncc12 [Example 67, benzyl (5-ethynyl-2-((4-(4-methylpiperazin-1-yl)phenyl)amino)pyrido[2,3-d]pyrimidin-7-yl)carbamate] |
| < 500 nM | 1000 to 3000 nM | 1000 to 10000 nM | < 20 nM | > 3000 nM | C#Cc1cc(N2C(=O)OCC2C(C)C)nc2nc(Nc3ccc(N4CCN(C)CC4)cc3)ncc12 (centres unmarked) [Example 68, 3-(5-ethynyl-2-{[4-(4-methylpiperazin-1-yl)phenyl]amino}pyrido[2,3-d]pyrimidin-7-yl)-4-isopropyl-1.3-oxazolidin-2-one] |
| 500 to 1000 nM | 500 to 1000 nM | > 10000 nM | < 20 nM | > 3000 nM | C#Cc1cc(N2C(=O)OC[C@H]2C(C)C)nc2nc(Nc3ccc(N4CCN(C)CC4)cc3)ncc12 [Example 69, (4R)-3-(5-ethynyl-2-{[4-(4-methylpiperazin-1-yl)phenyl]amino}pyrido[2,3-d]pyrimidin-7-yl)-4-isopropyl-1,3-oxazolidin-2-one] |
| 500 to 1000 nM | > 3000 nM | < 1000 nM | < 20 nM | 500 to 1000 nM | C#Cc1cc(N2C(=O)OC[C@@H]2C(C)C)nc2nc(Nc3ccc(N4CCN(C)CC4)cc3)ncc12 [Example 70, (4S)-3-(5-ethynyl-2-{[4-(4-methylpiperazin-1-yl)phenyl]amino}pyrido[2,3-d]pyrimidin-7-yl)-4-isopropyl-1,3-oxazolidin-2-one] |
| 1000 to 3000 nM | > 3000 nM | < 1000 nM | < 20 nM | 1000 to 3000 nM | C#Cc1cc(N2CCOC2=O)nc2nc(Nc3ccc(N4CCN(C)CC4)cc3)ncc12 [Example 71, 3-(5-ethynyl-2-{[4-(4-methylpiperazin-1-yl)phenyl]amino}pyrido[2,3-d]pyrimidin-7-yl)-1,3-oxazolidin-2-one] |
| 500 to 1000 nM | 1000 to 3000 nM | < 1000 nM | < 20 nM | > 3000 nM | C#Cc1c(C)c(NC(=O)NC2CCCC2)nc2nc(Nc3ccc(N4CCN(C)CC4)cc3)ncc12 [Example 72, 3-Cyclopentyl-1-(5-ethynyl-6-methyl-2-{[4-(4-methylpiperazin-1-yl)phenyl]amino}pyrido[2,3-d]pyrimidin-7-yl)urea] |
| < 500 nM | < 500 nM | < 1000 nM | < 20 nM | > 3000 nM | C#Cc1cc(N(C)C(=O)NC2CCCC2)nc2nc(Nc3ccc(N4CCN(C)CC4)cc3)ncc12 [Example 73, 3-Cyclopentyl-1-(5-ethynyl-2-{[4-(4-methylpiperazin-1-yl)phenyl]amino}pyrido[2,3-d]pyrimidin-7-yl)-1-methylurea] |
| > 3000 nM | > 3000 nM | 1000 to 10000 nM | 100 to 1000 nM | > 3000 nM | C#Cc1cc(NC(=O)N(C)C2CCCC2)nc2nc(Nc3ccc(N4CCN(C)CC4)cc3)ncc12 [Example 74, 3-Cyclopentyl-1-(5-ethynyl-2-{[4-(4-methylpiperazin-1-yl)phenyl]amino}pyrido[2,3-d]pyrimidin-7-yl)-3-methylurea] |
| < 500 nM | < 500 nM | < 1000 nM | < 20 nM | < 500 nM | C#Cc1cc(NC(=O)NC2CCCC2)nc2nc(Nc3ccc(N4CCOCC4)cc3)ncc12 [Example 75] |
